Experimental findings from patent EP0064487A1, “New substituted 3-(parasubstituted)phenoxy-1-alkylamino-propanol-2-s, as well as process for their preparation, pharmaceutical preparations containing same, and method for treating cardiac failure” (priority 1981, dated 1982) are described below.

Each structure is given as a SMILES string.

Experiment [1] relates to inotropic effect (max dF/dt) in the aorta. As to the kind of experiment: Duration of positive inotropic action (decline of max dF/dt in the aorta) in conscious dogs, i.v. dosing. The format is in vivo. To be noted: conscious beagle dogs, intravenous. Here is the method: The duration of action of the compounds has been studied in conscious beagle dogs. An electromagnetic flow probe was inplanted on the ascending aorta for determination of the r inotropic effect measured as maximal flow acceleration (max dF/dt) in the aorta. For determination of blood pressure catheters were inplanted in thoracic aorta and .left atrium. Increasing doses of the substances were administered intravenously and the decline of inotropic effect (max dF/dt) was used for determination of duration.

The subject of experiment [2] is contractility of the heart. As to the kind of experiment: Positive inotropic effect (increase in max dP/dt) in reserpine-pretreated, anaesthetized cats, i.v. dosing. The format is in vivo. The note with it: continuous infusion. Here is the method: The positive inotropic effect and the cardioselectivity of the compounds were studied in cats with an average weight of 3 kg. The animals were pretreated with reserpine (5 mg/kg i.p.) about 16 hours before experiment. This treatment eliminated the reflex sympathetic control of the heart and the vascular tonus. Following pentobarbital anaesthesia (Mebumal^e, 30 mg/kg i.p.) artificial air respiration was started. The two vagus nerves were cut and the adrenal glands were excluded from the circulation by means of ligatures on the adrenal veins.
Blood pH, pC02 and p02 were kept within the normal ranges throughout the experiments. All recordings were made on a Grass Polygraph. Heart rate, pressure in the left ventricle (LVP), the first derivative of LVP (dP/dt), intra-arterial blood pressure and peripheral resistance were recorded. LVP was recorded via a catheter tip pressure transducer (Millar), which was inserted via the left carotid artery. This.pressure curve was differentiated and max dP/dt was recorded by means of a peak detector. The recording of max dP/dt was linear up to 20 […]. The increase in max dP/dt was used as a measure of the increased contractility of the heart.
The substances were administered intravenously in increasing doses. […]

With `CC(C)NCC(O)c1ccc(O)c(O)c1` (centres unmarked) [isoprenaline], in experiment [1], the “time for 50% decline of the positive inotropic effect (max dF/dt)” value is on record as “less than 1 min”. Moreover, in experiment [2], the Half maximal effect turned out to be 0.004 µmol/kg/min.
